Source: the supplement of paper PMC11061612

What was measured:
Assay in all cases: combination Emax (second highest fraction inhibited in the dose matrix, 72 h); higher = more inhibition; extreme values may be limits of the assay
[1] = system: 639-V (Bladder Carcinoma)
In short: (§1)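 After 24 hours at 37°C and 5% CO2 in 1536-well plates, cells in DMEM/F12 or RPMI plus 10% FBS received two-drug dose matrices for 72 hours. Viability came from CellTiter-Glo 2.0 luminescence and was scaled as inhibition, anchored at 0 by vehicle wells and at 1 by blank wells. Combination Emax is taken as the second-highest inhibition in the matrix, and Bliss excess as the observed combination effect less EA + EB − EA·EB, with EA and EB the single-agent effects.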

[2] = system: 8305C (Thyroid Gland Carcinoma)
In short: as §1

[3] = system: CAL-51 (Breast Carcinoma)
In short: as §1

[4] = system: CAL-54 (Kidney Carcinoma)
In short: as §1

COLO-829 (Melanoma) = system: COLO-829 (Melanoma)
In short: as §1

[5] = system: EN (Endometrial Carcinoma)
In short: as §1

[6] = system: HARA (Squamous Cell Lung Carcinoma)
In short: as §1

[7] = system: HCC-15 (Squamous Cell Lung Carcinoma)
In short: as §1

NB14 (Neuroblastoma) = system: NB14 (Neuroblastoma)
In short: as §1

NCI-H2461 (Mesothelioma) = system: NCI-H2461 (Mesothelioma)
In short: as §1

NCI-H2795 (Mesothelioma) = system: NCI-H2795 (Mesothelioma)
In short: as §1

[8] = system: NCI-H69 (Small Cell Lung Carcinoma)
In short: as §1

[9] = system: NCI-H747 (Colorectal Carcinoma)
In short: as §1

[10] = system: PCI-30 (Head and Neck Carcinoma)
In short: as §1

[11] = system: RKO (Colorectal Carcinoma)
In short: as §1

[12] = system: RPMI-6666 (Non-Cancerous)
In short: as §1

SH-4 (Melanoma) = system: SH-4 (Melanoma)
In short: as §1

[13] = system: SU-DHL-6 (B-Cell Non-Hodgkin's Lymphoma)
In short: as §1

[14] = system: SW1271 (Small Cell Lung Carcinoma)
In short: as §1

[15] = system: UMC-11 (Other Solid Carcinomas)
In short: as §1

Structure (SMILES)	combination Emax [1]	combination Emax [2]	combination Emax [3]	combination Emax [4]	combination Emax (COLO-829 (Melanoma))	combination Emax [5]	combination Emax [6]	combination Emax [7]	combination Emax (NB14 (Neuroblastoma))	combination Emax (NCI-H2461 (Mesothelioma))	combination Emax (NCI-H2795 (Mesothelioma))	combination Emax [8]	combination Emax [9]	combination Emax [10]	combination Emax [11]	combination Emax [12]	combination Emax (SH-4 (Melanoma))	combination Emax [13]	combination Emax [14]	combination Emax [15]
CCN(CCO)CCCOc1ccc2c(Nc3cc(CC(=O)Nc4cccc(F)c4)[nH]n3)ncnc2c1 [AZD2811] + C[C@@H]1COCCN1C2=NC(=NC(=C2)C3(CC3)[S@](=N)(=O)C)C4=C5C=CNC5=NC=C4 [AZD6738] (first compound max 1 µM, 7x7, partner max 10 µM)	0.339	0.567	0.922	0.666	0.219	0.609	0.816	0.824	0.998	0.739	0.674	0.726	0.306	0.581	0.853	0.833	0.31	0.446	0.595	0.799
COc1cccc(OCCCN)c1-c1cc(Nc2cnc(C#N)cn2)n[nH]1 [Prexasertib] + CN(C)CCCOc1ccc(-c2ccc3ncc4c(c3c2)n(C2CCOCC2)c(=O)n4C)cn1 [AZD0156] (first compound max 1 µM, 7x7, partner max 1 µM)	0.446	0.737	0.946	0.863	0.385	0.762	0.986	0.187	1	0.745	0.789	0.582	0.37	0.813	0.891	0.977	0.807	0.642	0.678	0.902
Cn1cnc2c(F)c(Nc3ccc(Br)cc3Cl)c(C(=O)NOCCO)cc21 [Selumetinib] + CC(C)n1c(=O)n(C)c2cnc3cc(F)c(-c4ccc(OCCCN5CCCCC5)nc4)cc3c21 [AZD1390] (first compound max 10 µM, 7x7, partner max 0.3 µM)	0.238	0.379	0.157	0.346	0.481	0.261	0.184	0.421	0.241	0.337	0.846	0.122	0.702	0.203	0.606	0.368	0.854	0.265	0.499	0.0797
COc1nnc2ccc(N3CCC(c4ccc(OCCN5CCN(C)C(=O)[C@H]5C)cc4)CC3)nn12 [AZD5153] + C=CCn1c(=O)c2cnc(Nc3ccc(N4CCN(C)CC4)cc3)nc2n1-c1cccc(C(C)(C)O)n1 [AZD1775] (first compound max 1 µM, partner max 1 µM)	0.714	0.674	0.956	0.832	0.283	0.525	0.928	0.674	1	0.655	0.597	0.678	0.782	0.395	0.841	0.828	0.65	0.941	0.649	0.9
COc1nnc2ccc(N3CCC(c4ccc(OCCN5CCN(C)C(=O)[C@H]5C)cc4)CC3)nn12 [AZD5153] + CC1(C)CCC(CN2CCN(c3ccc(C(=O)NS(=O)(=O)c4ccc(NCC5CCOCC5)c([N+](=O)[O-])c4)c(Oc4cnc5[nH]ccc5c4)c3)CC2)=C(c2ccc(Cl)cc2)C1 [Venetoclax] (first compound max 1 µM, 7x7, partner max 1 µM)	0.582	0.524	0.673	0.769	0.226	0.289	0.654	0.329	0.761	0.517	0.465	0.636	0.702	0.344	0.757	0.764	0.607	1	0.57	0.769
C[C@@H]1COCCN1c1cc(C2([S@](C)(=N)=O)CC2)nc(-c2ccnc3[nH]ccc23)n1 [AZD6738] + O=C(c1cc(Cc2n[nH]c(=O)c3ccccc23)ccc1F)N1CCN(C(=O)C2CC2)CC1 [Olaparib] (first compound max 10 µM, 7x7, partner max 10 µM)	0.787	0.99	0.926	0.658	0.194	0.535	0.778	0.258	0.94	0.703	0.745	0.585	0.356	0.538	0.845	0.816	0.419	0.621	0.666	0.561
CC1(C)CCC(CN2CCN(c3ccc(C(=O)NS(=O)(=O)c4ccc(NCC5CCOCC5)c([N+](=O)[O-])c4)c(Oc4cnc5[nH]ccc5c4)c3)CC2)=C(c2ccc(Cl)cc2)C1 [Venetoclax] + Cc1cc2ncnn2cc1Nc1ncc2c(n1)n(C1CCOCC1)c(=O)n2C [AZD7648] (first compound max 1 µM, 7x7, partner max 10 µM)	0.244	0.385	0.289	0.256	0.143	0.49	0.572	0.253	0.974	0.528	0.471	0.657	0.414	0.224	0.275	0.959	0.279	0.853	0.202	0.414
CN(CCO)CC[C@H](CSc1ccccc1)Nc1ccc(S(=O)(=O)NC(=O)c2ccc(N3CCC([C@@H](O)c4ccccc4-c4ccc(Cl)cc4)CC3)cc2)cc1S(=O)(=O)C(F)(F)F [AZD4320] + C[C@@H]1COCCN1C2=NC(=NC(=C2)C3(CC3)[S@](=N)(=O)C)C4=C5C=CNC5=NC=C4 [AZD6738] (first compound max 1 µM, 7x7, partner max 10 µM)	0.665	0.834	0.919	0.835	0.213	0.69	0.884	0.94	1	0.838	0.844	0.927	0.333	0.653	0.85	0.989	0.409	0.951	0.733	0.806
CN(CCO)CC[C@H](CSc1ccccc1)Nc1ccc(S(=O)(=O)NC(=O)c2ccc(N3CCC([C@@H](O)c4ccccc4-c4ccc(Cl)cc4)CC3)cc2)cc1S(=O)(=O)C(F)(F)F [AZD4320] + CN(C)CCCOc1ccc(-c2ccc3ncc4c(c3c2)n(C2CCOCC2)c(=O)n4C)cn1 [AZD0156] (first compound max 1 µM, 7x7, partner max 1 µM)	0.19	0.559	0.16	0.163	0.0619	0.218	0.187	0.936	0.983	0.259	0.417	0.86	0.311	0.158	0.122	0.875	0.16	0.986	0.127	0.567
CCN(CCO)CCCOc1ccc2c(Nc3cc(CC(=O)Nc4cccc(F)c4)[nH]n3)ncnc2c1 [AZD2811] + C=CCn1c(=O)c2cnc(Nc3ccc(N4CCN(C)CC4)cc3)nc2n1-c1cccc(C(C)(C)O)n1 [AZD1775] (first compound max 1 µM, partner max 1 µM)	0.265	0.89	0.815	0.622	0.274	0.558	0.788	0.723	1	0.638	0.441	0.602	0.414	0.344	0.655	0.902	0.456	0.734	0.586	0.832
COc1cccc(OCCCN)c1-c1cc(Nc2cnc(C#N)cn2)n[nH]1 [Prexasertib] + C=CCn1c(=O)c2cnc(Nc3ccc(N4CCN(C)CC4)cc3)nc2n1-c1cccc(C(C)(C)O)n1 [AZD1775] (first compound max 1 µM, partner max 1 µM)	0.805	0.718	0.95	0.868	0.237	0.859	0.984	0.542	1	0.745	0.804	0.955	0.746	0.894	0.974	0.955	0.742	0.955	0.699	0.936
CN(CCO)CC[C@H](CSc1ccccc1)Nc1ccc(S(=O)(=O)NC(=O)c2ccc(N3CCC([C@@H](O)c4ccccc4-c4ccc(Cl)cc4)CC3)cc2)cc1S(=O)(=O)C(F)(F)F [AZD4320] + C1CN(CCC1(C(=O)N[C@@H](CCO)C2=CC=C(C=C2)Cl)N)C3=NC=NC4=C3C=CN4 [Capivasertib] (first compound max 1 µM, 7x7, partner max 3 µM)	0.154	0.506	0.504	0.338	0.118	0.576	0.298	0.923	0.947	0.429	0.271	0.892	0.387	0.191	0.272	0.916	0.129	1	0.158	0.508
